Test results from patent US20250127789A1, “COMPOSITIONS USEFUL FOR MODULATING SPLICING” (SKYHAWK THERAPEUTICS, INC., priority 2021, published 2025).

Legend:
[1] = test system: total ATXN3 protein in SK-N-MC cells; experiment: ATXN3 total protein assay (MSD); assay type: cell-based; details: Human neuroblastoma SK-N-MC cells, 48 hours incubation, read-out: ATXN3 Protein Potency IC50
Protocol: Human neuroblastoma SK-N-MC cells were seeded at 10,000 cells/well in 384 well plates one day prior to compound treatment. The concentrations of compounds were tested at appropriate doses ranging from 30 μM to 0.6 nM. After incubation for 48 hours, the cells were lysed with 25 μL of lysis buffer containing protease inhibitors, and total ATXN3 protein levels were assessed by Mesoscale Discovery (MSD) assay developed with one pair of anti-ATXN3 antibodies. The capture and detect antibodies were raised in mouse and rabbit respectively. Anti-rabbit MSD-ST antibody was used for secondary antibody.
ATXN3 recombinant protein was used for standards. The readouts were captured with 35 μL of MSD read buffer and multi-array 384-well high binding plates.

[2] = test system: ATXN3 exon 4 skipped transcripts in SK-N-MC cells; experiment: ATXN3 quantitative splicing assay (qPCR of exon 4 skipped transcripts); assay type: cell-based; details: Human neuroblastoma SK-N-MC cells, 24 h treatment, read-out: ATXN 3 E4 Skipping EC50
Protocol: Human neuroblastoma SK-N-MC cells were plated in 384-well plates at 20,000 cells/well. Twenty-four hours after plating, cells were treated with compounds for 24 hat appropriate concentrations ranging from 30 µM to 0.6 nM (0.3% DMSO). Treated cells were lysed in 15 μL of lysis buffer, and cDNA was synthesized using the Fast Advanced Cells-to-Ct kit Two μL of each cDNA was used in PCR reactions to confirm the exon 4 skipped transcripts of ATXN3. A second set of primers/probe E4E5 was used to detect the transcripts containing exon 4. The third set of primers/probe E8E9 was used to detect total gene level of ATXN3. The qPCR reactions were prepared in 384-well plates in 10 μL volume, using TaqMan™ Fast Advanced Master Mix with primers and probes shown in the table below. Reactions were run in a Quant Studio 6 qPCR instrument with default settings.
The primers and probes are listed below in Table 3.

SMILES	IC50 [1] [µM]	EC50 [2] [µM]
Cc1csc2c(NCc3ccncc3)nnnc12 [Compound 3, 7-methyl-N-(pyridin-4-ylmethyl)thieno[3,2-d][1,2,3]triazin-4-amine]	≥ 10	≥ 10
Cc1c(C[C@H](C)N)sc2c(NCc3ccccc3)nnnc12 [Compound 2, (S)-6-(2-aminopropyl)-N-benzyl-7-methylthieno[3,2-d][1,2,3]triazin-4-amine]	≥ 10	≥ 10
Cc1csc2c(NCc3ccccc3)nnnc12 [Compound 1, N-benzyl-7-methylthieno[3,2-d][1,2,3]triazin-4-amine]	≥ 10	≥ 10
Cc1c(C[C@H](C)N)sc2c(NCc3ccncc3)nnnc12 [Compound 4, (S)-6-(2-aminopropyl)-7-methyl-N-(pyridin-4-ylmethyl)thieno[3,2-d][1,2,3]triazin-4-amine]	0.501 to 5	0.501 to 5
